# System: Panc-1 and Miapaca-2 cells
# Test: Trypan blue staining, pancreatic cancer cells
# Assay type: cell-based, human
# Settings: increasing doses, 24 hours
# Experimental: Cell Viability Assay—The Cells were treated with peptides for 24 hours at different peptide concentrations. The 3-(4,5-dimethylthiazol-2-yl)-5-(3-carboxymethoxyphenyl)-2-(4-sulfophenyl)-2H-tetrazolium compound from Promega Viability kit (Madison, Ill.) was added, and the cells were incubated at 37° C. for 1-2 hours. The optical density on 96-plate was analyzed with a microplate reader at 490 nm to determine cell viability. In addition, cells were stained with trypan blue after 24 hours of treatment with Y15 and the percent of cells that stained positive were determined with a hemacytometer. […] Then 2% SDS was added to the dried plated and OD at 590 nm was measured for detecting cell adhesion. […] Protein concentrations were determined using a Bio-Rad Kit. The boiled samples were loaded on Ready SDS-10% PAGE gels (Bio Rad, Inc) and used for Western blot analysis with the protein-specific antibody. […] Detachment Assay—Cells were plated with and without inhibitors for 24 hours, and detached and attached cells were counted in a hemocytometer. We calculated the percent of detachment by dividing the number of detached cells by the total number of cells. The percent of detached cells was calculated in three independent experiments. […] For each experiment 300 cells per treatment were counted. […]
smiles,measurement,value
"Cl.Cl.Cl.Cl.Nc1cc(N)c(N)cc1N [Y15, 1,2,4,5-benzenetetraamine tetrahydrochloride]",cell viability (trypan blue),decreased cell viability indicative of necrosis
